Assay results from PubChem BioAssay (NCI).
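Assay format: 96-well plates, 48-hour exposure. At the GI50, growth is halved. TGI marks complete inhibition of growth.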

Key:
Assay in all cases: DTP human tumour cell line panel, 48 h
NCI/ADR-RES ovarian = test system: NCI/ADR-RES ovarian
SF-268 CNS = test system: SF-268 CNS
HS 578T breast = test system: HS 578T breast
LOX IMVI melanoma = test system: LOX IMVI melanoma
HOP-92 NSCLC = test system: HOP-92 NSCLC
MOLT-4 leukemia = test system: MOLT-4 leukemia
A549 NSCLC = test system: A549 NSCLC
OVCAR-4 ovarian = test system: OVCAR-4 ovarian
EKVX NSCLC = test system: EKVX NSCLC
M14 melanoma = test system: M14 melanoma
HL-60(TB) leukemia = test system: HL-60(TB) leukemia
T-47D breast = test system: T-47D breast
KM12 colon = test system: KM12 colon
SK-MEL-28 melanoma = test system: SK-MEL-28 melanoma
ACHN renal = test system: ACHN renal
MCF7 breast = test system: MCF7 breast
SR leukemia = test system: SR leukemia
SNB-19 CNS = test system: SNB-19 CNS
UACC-257 melanoma = test system: UACC-257 melanoma
COLO 205 colon = test system: COLO 205 colon
786-0 renal = test system: 786-0 renal
HCT-116 colon = test system: HCT-116 colon
NCI-H23 lung = test system: NCI-H23 lung
HOP-62 NSCLC = test system: HOP-62 NSCLC
MALME-3M melanoma = test system: MALME-3M melanoma
SF-295 CNS = test system: SF-295 CNS
HT29 colon = test system: HT29 colon
RPMI-8226 leukemia = test system: RPMI-8226 leukemia
BT-549 breast = test system: BT-549 breast
SK-OV-3 ovarian = test system: SK-OV-3 ovarian

In the case of `COc1ccc(NC(=O)N/N=C/c2c[nH]c3ccccc23)cc1`, the GI50 (NCI/ADR-RES ovarian) is reported as 308 nM, the TGI (NCI/ADR-RES ovarian) is reported as 1440 nM and the GI50 (SF-268 CNS) is reported as 5440 nM. The TGI (SF-268 CNS) was > 81400 nM, the GI50 (HS 578T breast) was 1130 nM and the TGI (HS 578T breast) was > 100000 nM. For the same compound, the GI50 (LOX IMVI melanoma) was 615 nM, the TGI (LOX IMVI melanoma) was > 46600 nM and the GI50 (HOP-92 NSCLC) was 2290 nM. The TGI (HOP-92 NSCLC) was 38300 nM, the GI50 (MOLT-4 leukemia) was 502 nM and the TGI (MOLT-4 leukemia) was 50700 nM. For the same compound, the GI50 (A549 NSCLC) was 815 nM, the TGI (A549 NSCLC) was > 100000 nM and the TGI (OVCAR-4 ovarian) was > 100000 nM. For the same compound, the GI50 (EKVX NSCLC) was 3410 nM, the TGI (EKVX NSCLC) was > 100000 nM and the GI50 (M14 melanoma) was 340 nM. For the same compound, the TGI (M14 melanoma) was > 100000 nM, the GI50 (HL-60(TB) leukemia) was 279 nM and the TGI (HL-60(TB) leukemia) was 1530 nM. For the same compound, the GI50 (T-47D breast) was 1310 nM, the TGI (T-47D breast) was > 100000 nM and the GI50 (KM12 colon) was 448 nM. For the same compound, the TGI (KM12 colon) was > 54500 nM, the GI50 (SK-MEL-28 melanoma) was 3310 nM and the TGI (SK-MEL-28 melanoma) was > 100000 nM. For the same compound, the GI50 (ACHN renal) was 1740 nM, the TGI (ACHN renal) was > 100000 nM and the GI50 (MCF7 breast) was 610 nM. The TGI (MCF7 breast) was > 100000 nM, the GI50 (SR leukemia) was 250 nM and the TGI (SR leukemia) was > 53400 nM. For the same compound, the GI50 (SNB-19 CNS) was 1830 nM, the TGI (SNB-19 CNS) was > 100000 nM and the GI50 (UACC-257 melanoma) was > 100000 nM. For the same compound, the TGI (UACC-257 melanoma) was > 100000 nM, the GI50 (COLO 205 colon) was 586 nM and the TGI (COLO 205 colon) was 3120 nM. For the same compound, the GI50 (786-0 renal) was 1520 nM, the TGI (786-0 renal) was 28100 nM and the GI50 (HCT-116 colon) was 389 nM. The TGI (HCT-116 colon) was 22600 nM, the GI50 (NCI-H23 lung) was 2140 nM and the TGI (NCI-H23 lung) was > 51700 nM. The GI50 (HOP-62 NSCLC) was 724 nM, the TGI (HOP-62 NSCLC) was > 100000 nM and the GI50 (MALME-3M melanoma) was 547 nM. For the same compound, the TGI (MALME-3M melanoma) was > 100000 nM, the GI50 (SF-295 CNS) was 458 nM and the TGI (SF-295 CNS) was > 32700 nM. The GI50 (HT29 colon) was 357 nM, the TGI (HT29 colon) was 5010 nM and the GI50 (RPMI-8226 leukemia) was 1090 nM. For the same compound, the TGI (RPMI-8226 leukemia) was 15300 nM, the GI50 (BT-549 breast) was 670 nM and the TGI (BT-549 breast) was > 62800 nM. For the same compound, the GI50 (SK-OV-3 ovarian) was 1980 nM and the TGI (SK-OV-3 ovarian) was > 100000 nM.
